Measured values as given in paper PMC4104029, “Mechanism of Action of Compound-13: An α1-Selective Small Molecule Activator of AMPK” (Chemistry & Biology, 2014).

Test system: AMPK signaling in mouse primary hepatocytes
Test: AMPK signaling in primary hepatocytes, western blotting
Format: cell-based
Description: Figure 4 The C2 Prodrug, C13, Potently Activates AMPK in Mouse Primary Hepatocytes (A) Isolated mouse hepatocytes were incubated with vehicle or the indicated concentrations of C13 for 1 hr. AICAR (0.5 mM) was included as a positive control. Cell lysates were analyzed using western blotting with the indicated antibodies. (B) AMPKα1 or AMPKα2 complexes were immunoprecipitated from hepatocyte extracts prepared as described in (A) and assayed for kinase activity using 0.2 mM AMARA and 0.1 mM ATP. Results are expressed as the mean Pi incorporated in picomoles per minute-milligram ± SD. (C) Hepatocytes were stimulated with 30 μM C13 for the indicated times prior to harvesting, with AICAR (0.5 mM, 1 hr) as positive control. Lysates were analyzed using western blotting with the indicated antibodies. (D) Mouse hepatocytes were treated with the indicated compounds for 1 hr, and adenine nucleotide ratios were determined using capillary electrophoresis of perchloric acid extracts. (E) Mouse hepatocytes were preincubated with 30 μM STO-609 for 30 min prior to stimulation with 30 μM C13 for 1 hr or with 1 μM ionomycin for 30 min. Lysates were analyzed using western blotting with the indicated antibodies. (F) Wild-type (LKB1^+/+) or LKB1-null (LKB1^−/−) mouse embryonic fibroblasts were incubated with the indicated concentrations of C13 for 1 hr. AICAR (2 mM) was included as a positive control. Lysates were analyzed using western blotting with the indicated antibodies. Results are representative of three independent experiments. […]
Isolation of primary hepatocytes. Hepatocytes were isolated from fasted mice by collagenase digestion (Berry and Friend, 1969). Cells were seeded in M199 containing 100 U/ml penicillin G, 100 µg/ml streptomycin, 0.1 % (w/v) BSA, 10 % (v/v) FBS, 10 nM insulin, 200 nM triiodothyronine and 100 nM dexamethasone. Post attachment (3-4 h), cells were cultured overnight in M199 supplemented with antibiotics and 100 nM dexamethasone and used for experiments the following morning.
Western blotting. Cells were stimulated as indicated, rinsed with ice-cold PBS and lysed with 50 mM tris pH 7.5, 1 mM EDTA, 1 mM EGTA, 0.27 M sucrose, 1 % (w/v) Triton X-100, 20 mM glycerol-2-phosphate, 50 mM NaF, 5 mM Na4P2O7, 1 mM Na3VO4, 1 mM DTT, 0.5 mM PMSF, 1 mM benzamidine and 1 µM microcystin-LR. Lysates were clarified at 3000 g for 5 min at 4 °C and normalised using Bradford reagent and BSA as standard. Lysates (20 µg) were denatured in Laemlli buffer, separated on 7.5 % tris-glycine gels and transferred to PVDF in Towbin buffer. Membranes were blocked in 5 % (w/v) milk for 1 h at RT and incubated overnight in the indicated primary antibodies at 4 °C. Membranes were developed using HRP-conjugated antibodies and ECL reagent.
Nucleotide measurements. Cultured hepatocytes were incubated with the indicated compounds and washed with ice-cold 0.9 % (w/v) saline before extraction in 5 % perchloric acid. Precipitated material was removed by centrifugation (13,000 RPM, 3 min) and supernatant neutralised with 1:1 trioctylamine:Freon-113 (Khym, 1975). Nucleotides were separated and quantified by capillary electrophoresis using a Beckman P/ACE instrument as previously described (Hawley, et al., 2010).

**Q.** What does the source list for `CC(C)C(=O)OCOP(=O)(OCOC(=O)C(C)C)c1ccc(C2=NOC(=O)C2)o1` [Compound C13]?
**A.** time course of Thr172 phosphorylation (30 μM): continually increased up to 2 hr; time to maximal phosphorylation of downstream targets (ACC, Raptor, and ULK1) (30 μM): 45 to 60 min; insulin-stimulated mTORC1 activation (phosphorylation of p70S6K and 4EBP1) (30 µM, 10 mU/ml insulin, 60 min): suppressed; concentration above which Raptor and ULK1 were significantly phosphorylated (1 hr): 1 to 3 µM; concentration above which phosphorylation of ACC was evident (1 hr): 0.03 to 0.1 µM; concentration at which ACC phosphorylation appeared saturated (1 hr): 1 to 3 µM; concentration at which Thr389 p70S6K1 phosphorylation was suppressed (1 hr): above 1 μM; lowest concentration with elevation of Thr172 phosphorylation (1 hr): 10 µM
